Laboratory results from patent publication US4945055A, “Human chorionic gonadotropin releasing factor” (Board of Regents, University of Texas System, priority 1986, dated 1990).
One block for each compound: values may come before it.

Legend:
[1] = target: placental receptor recognizing synthetic GnRH; conditions: read-out: dissociation constant of the placental receptor for synthetic GnRH; cited from earlier work
[2] = system: human chorionic gonadotropin releasing factor (hCG-RF), glycoprotein purified from human term placenta, peptidase activity degrading GnRH; experiment: Loss of GnRH immunoreactivity on incubation with hCG-RF (GnRH-RIA after Sephadex G-150); format: biochemical; conditions: hCG-RF 41 ug, GnRH 40 ng, 24 h at 4° C.
Protocol: The effect of purified hCG-RF on GnRH immunoreactivity was studied. […] Chromatography of 0.1 ml of the incubate on Sephadex G-150 (1×20 cm in 0.01M TRIS, 0.001M DTT) followed, collecting 1 ml fraction. Immunoreactive GnRH was determined by GnRH-RIA.

Compound: CC(C)C[C@H](NC(=O)CNC(=O)[C@H](Cc1ccc(O)cc1)NC(=O)[C@H](CO)NC(=O)[C@H](Cc1c[nH]c2ccccc12)NC(=O)[C@H](Cc1c[nH]cn1)NC(=O)[C@@H]1CCC(=O)N1)C(=O)N[C@@H](CCCNC(=N)N)C(=O)N1CCC[C@H]1C(=O)NCC(N)=O [synthetic GnRH, pyro-glu-his-trp-ser-tyr-gly-leu-arg-pro-gly-NH2]
Kd [1]: 0.1 µM

reversal of the loss of GnRH immunoreactivity effected by incubation with hCG-RF ([2]; 175 mM para-amino-benzamidine added with the buffer): totally reversed
Compound: N=C(N)c1ccc(N)cc1 [para-amino-benzamidine]

Compound: bacitracin
reversal of the loss of GnRH immunoreactivity effected by incubation with hCG-RF ([2]; 5000 unit bacitracin added with the buffer): totally reversed
